Experimental data: the NIST ThermoML archive (doi:10.1021/je800012v)

Assay: xn = mol fraction of the nth substance listed
Details: Liquid

CCCCCl [1-chlorobutane] + CCCCCC
mass density [kg/m3]
Details	x1 = 0.1099	x1 = 0.212	x1 = 0.2925	x1 = 0.316	x1 = 0.405	x1 = 0.4978	x1 = 0.5975	x1 = 0.6869	x1 = 0.8294	x1 = 0.9025
303.15 K, 15000 kPa	–	–	–	–	–	763.87	786.55	807.83	843.86	863.22
303.15 K, 20000 kPa	689.49	708.98	724.92	729.73	748.24	768.43	791.14	812.44	848.41	867.82
303.15 K, 25000 kPa	693.71	713.22	729.21	733.98	752.58	772.8	795.51	816.83	852.75	872.22
303.15 K, 30000 kPa	697.71	717.27	733.29	738.06	756.71	776.94	799.69	821.01	856.96	876.44
303.15 K, 35000 kPa	701.46	721.06	737.11	741.91	760.56	780.82	803.62	824.94	860.94	880.41
313.15 K, 100 kPa	660.25	679.39	695.16	699.82	718.21	738.18	760.7	781.81	817.54	836.89
313.15 K, 2500 kPa	663.22	682.37	698.14	702.79	721.17	741.14	763.65	784.75	820.43	839.76
313.15 K, 5000 kPa	666.15	685.31	701.06	705.74	724.11	744.08	766.58	787.66	823.33	842.65
313.15 K, 10000 kPa	671.67	690.86	706.6	711.27	729.65	749.65	772.1	793.2	828.82	848.11
313.15 K, 15000 kPa	676.77	695.99	711.76	716.43	734.82	754.83	777.29	798.39	833.99	853.27
313.15 K, 20000 kPa	681.54	700.78	716.6	721.27	739.68	759.7	782.18	803.3	838.9	858.17
313.15 K, 25000 kPa	686.03	705.32	721.16	725.85	744.28	764.34	786.8	807.96	843.57	862.84
313.15 K, 30000 kPa	690.26	709.59	725.44	730.12	748.61	768.68	791.2	812.36	847.97	867.27
313.15 K, 35000 kPa	694.28	713.66	729.55	734.28	752.76	772.87	795.4	816.59	852.24	871.55
323.15 K, 100 kPa	650.68	669.65	685.16	689.81	708	727.88	750.16	771.11	806.56	825.76
323.15 K, 2500 kPa	653.88	672.84	688.38	693.01	711.21	730.97	753.32	774.25	809.67	828.84
323.15 K, 5000 kPa	657.08	676.07	691.59	696.23	714.41	734.25	756.52	777.43	812.8	831.94
323.15 K, 10000 kPa	663.04	682.03	697.57	702.21	720.41	740.23	762.49	783.36	818.69	837.82
323.15 K, 15000 kPa	668.53	687.54	703.11	707.76	725.96	745.81	768.07	788.94	824.21	843.35
323.15 K, 20000 kPa	673.62	692.66	708.23	712.92	731.15	751.01	773.25	794.16	829.43	848.55
323.15 K, 25000 kPa	678.38	697.47	713.06	717.75	736.01	755.88	778.17	799.07	834.36	853.47
323.15 K, 30000 kPa	682.82	701.95	717.58	722.3	740.59	760.48	782.79	803.7	839.01	858.16
323.15 K, 35000 kPa	687.05	706.22	721.89	726.62	744.94	764.87	787.22	808.14	843.47	862.63
333.15 K, 100 kPa	640.84	659.59	674.97	679.61	697.62	717.27	739.37	760.13	795.31	814.35
333.15 K, 2500 kPa	644.37	663.28	678.48	683.13	701.13	720.76	742.8	763.57	798.68	817.7
333.15 K, 5000 kPa	647.85	666.6	681.96	686.6	704.59	724.22	746.27	766.97	802.05	821.05
333.15 K, 10000 kPa	654.25	673.04	688.41	693.04	711.02	730.64	752.68	773.35	808.4	827.36
333.15 K, 15000 kPa	660.12	678.96	694.34	698.97	716.97	736.59	758.64	779.29	814.33	833.22
333.15 K, 20000 kPa	665.54	684.42	699.82	704.46	722.46	742.1	764.16	784.83	819.85	838.75
333.15 K, 25000 kPa	670.56	689.51	704.94	709.59	727.62	747.28	769.35	790.03	825.07	843.95
333.15 K, 30000 kPa	675.27	694.27	709.73	714.38	732.45	752.13	774.27	794.94	830	848.89
333.15 K, 35000 kPa	679.71	698.78	714.25	718.92	737.02	756.72	778.9	799.6	834.7	853.59
